In data set [1] the test system is NCI-H460/R. In words: MTT assay, reversal of DOX resistance in NCI-H460/R cells. The format is cell-based, human. The conditions noted are these: for Relative Reversal of DOX resistance: IC50 DOX alone / IC50 in combination. The protocol:
(§1) The metabolic activity of viable cells was measured by MTT assay. Cells grown in 25 cm^2 tissue flasks were trypsinized, seeded into flat-bottomed 96-well tissue culture plates, and incubated overnight. Subsequently, the cells were treated with increasing concentrations of Si306, pro-Si306, and dasatinib (1–25 μM), as well as with Si221 and pro-Si221 (2.5–50 μM) for 72 h. In addition, the combined effects of Si306, pro-Si306, and pro-Si221with DOX as well as with PTX were studied in NCI-H460/R and DLD1-TxR cells, respectively. In simultaneous treatments that lasted 72 h in NCI-H460/R and DLD1-TxR cells, two concentrations of Si306, pro-Si306, and pro-Si221 (0.2 μM and 0.5 μM) were combined with increasing concentrations of DOX and PTX (0.1–2 μM). After treatment, MTT was added to each well at a final concentration of 0.2 mg/mL for 3 h. Then, formazan produced in cells with intact/viable mitochondria was dissolved in 200 μL of DMSO, and the absorbance was measured at 570 nm on a Multiskan Sky Microplate Spectrophotometer (ThermoFisher Scientific, United States). The IC50 value is defined as the concentration of a drug that decreases cell viability by 50% and was calculated by nonlinear regression analysis using GraphPad Prism 6.0 for Windows (La Jolla, CA, USA). Relative reversal was calculated as a relation between the IC50 values of DOX and PTX alone obtained in NCI-H460/R and DLD1-TxR cells, respectively and the IC50 values of DOX and PTX in combination with Pro-Si306 and Pro-Si221.
(In general: Tetrazolium dyes change colour on reduction, which living cells bring about.)

For data set [2], the system named is NCI-H460, NCI-H460/R, DLD1, DLD1-TxR. The data set is described as follows: MTT cell viability assay, two sensitive/MDR cancer cell line pairs. Type of data set: cell-based. The conditions noted are these: Homo sapiens, summary over the four cell lines, 72 h. The protocol: as §1
Another data set relates to DLD1. The data set is described as follows: MTT cell viability assay, DLD1. To be noted: Homo sapiens, DLD-1, 72 h, read-out: Decrease in cell viability, IC50. The format is cell-based. Here is the method: as §1
The test system of another data set is NCI-H460. The data set is described as follows: MTT cell viability assay, NCI-H460. The format is cell-based. To be noted: Homo sapiens, 72 h, read-out: Decrease in cell viability, IC50. The protocol: as §1
For data set [3], the system named is DLD1-TxR. In words: MTT cell viability assay, DLD1-TxR. To be noted: Homo sapiens, DLD1-TxR (MDR), 72 h, read-out: Decrease in cell viability, IC50. Type of data set: cell-based. The protocol: as §1
In data set [4] the test system is NCI-H460/R. In words: MTT cell viability assay, NCI-H460/R. The conditions noted are these: for IC50: Homo sapiens, NCI-H460/R (MDR), MTT, 72 h, read-out: Decrease in cell viability, IC50. The format is cell-based, human. The protocol: as §1
For data set [5], the target named is T1, P-gp (Homo sapiens, UniProt P08183). The data set is described as follows: Rho 123 accumulation assay (P-gp activity) in NCI-H460/R cells. The conditions noted are these: for P-gp inhibition by Rho 123 intracellular accumulation / IC50 / kinetics of P-gp inhibition (Rho123 accumulation): NCI-H460/R; for P-gp inhibition by Rho 123 intracellular accumulation: 10 µM, 30-min treatment, compared with Dex-VER; for IC50: IC50 for P-gp inhibition, Rho123 accumulation, 30 min; for kinetics of P-gp inhibition (Rho123 accumulation): 24-, 48-, 96-, 168-h treatments, 10 µM pro-Si306, pro-Si221, 5 and 10 nM TQ.
T1 sequence (P08183 whole entry): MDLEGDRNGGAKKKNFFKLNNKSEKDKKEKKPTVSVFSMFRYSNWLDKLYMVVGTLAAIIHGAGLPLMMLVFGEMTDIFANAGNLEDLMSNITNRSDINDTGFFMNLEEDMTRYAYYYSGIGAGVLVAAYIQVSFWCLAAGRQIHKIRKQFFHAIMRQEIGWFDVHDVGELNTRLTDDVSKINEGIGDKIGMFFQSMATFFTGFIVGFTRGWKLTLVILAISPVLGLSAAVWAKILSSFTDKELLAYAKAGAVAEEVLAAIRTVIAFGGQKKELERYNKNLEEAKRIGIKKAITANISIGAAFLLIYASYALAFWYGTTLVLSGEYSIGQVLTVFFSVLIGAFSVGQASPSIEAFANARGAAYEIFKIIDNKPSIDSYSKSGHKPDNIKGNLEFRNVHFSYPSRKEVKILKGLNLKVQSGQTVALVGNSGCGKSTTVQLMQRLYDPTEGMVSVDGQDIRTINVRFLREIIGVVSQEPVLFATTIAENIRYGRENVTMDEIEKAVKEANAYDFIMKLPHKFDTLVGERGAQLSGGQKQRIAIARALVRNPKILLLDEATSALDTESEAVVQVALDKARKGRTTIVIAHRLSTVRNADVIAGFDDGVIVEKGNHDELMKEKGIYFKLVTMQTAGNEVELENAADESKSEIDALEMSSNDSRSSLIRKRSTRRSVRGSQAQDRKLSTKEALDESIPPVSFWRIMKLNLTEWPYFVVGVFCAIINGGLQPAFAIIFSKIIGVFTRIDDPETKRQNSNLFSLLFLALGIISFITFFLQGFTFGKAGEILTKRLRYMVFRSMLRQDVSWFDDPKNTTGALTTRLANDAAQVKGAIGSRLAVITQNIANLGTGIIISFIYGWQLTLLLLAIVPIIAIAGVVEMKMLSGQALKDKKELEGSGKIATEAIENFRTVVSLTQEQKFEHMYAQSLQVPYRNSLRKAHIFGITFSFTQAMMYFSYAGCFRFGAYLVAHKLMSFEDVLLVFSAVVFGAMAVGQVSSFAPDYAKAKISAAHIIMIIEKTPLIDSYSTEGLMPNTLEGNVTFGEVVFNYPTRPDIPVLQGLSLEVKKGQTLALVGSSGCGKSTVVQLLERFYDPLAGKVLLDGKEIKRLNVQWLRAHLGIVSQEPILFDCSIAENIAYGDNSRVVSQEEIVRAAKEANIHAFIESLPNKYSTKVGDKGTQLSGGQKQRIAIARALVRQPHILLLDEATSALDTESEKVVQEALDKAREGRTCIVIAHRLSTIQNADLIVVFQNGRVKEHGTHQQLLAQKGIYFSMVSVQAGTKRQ
Method: (§3) The accumulation of fluorescent P-gp substrate Rho 123 was analyzed by flow cytometry. The intensity of fluorescence was proportional to Rho 123 accumulation in the cell. […] NCI-H460 and DLD1 cells were used as a positive control for Rho 123 accumulation. All cell lines were seeded in adherent 6-well plates and grown overnight. In simultaneous treatment that lasted 30 min, 5 μM Rho 123 was applied along with 10 μM of Si306, pro-Si306, Si221, pro-Si221, dasatinib, and Dex-VER. […] Samples were incubated for 30 min at 37 °C in 5% CO2. […] At the end of the accumulation period, the cells were trypsinized, pelleted by centrifugation, washed with PBS, and placed in ice-cold PBS. The samples were kept on ice in the dark until analysis on a CyFlow Space Partec flow cytometer (Sysmex Partec GmbH, Görlitz, Germany). The fluorescence of Rho 123 was detected on fluorescence channel 1 (FL1-H) at 530 nm. Three independent experiments were performed for each experimental setting. A minimum of 10,000 events was assayed for each sample, and the obtained results were analyzed using Summit Dako Software (ver. 4.3, Fort Collins, CO, USA).

Data set [6] has as its system DLD1-TxR. The data set is described as follows: MTT assay, reversal of PTX resistance in DLD1-TxR cells. The format is cell-based, human. The conditions noted are these: for Relative Reversal of PTX resistance: IC50 PTX alone / IC50 in combination. The protocol:
as §1

Data set [7] deals with T1, P-gp. The data set is described as follows: P-gp ATPase activity assay (Pgp-Glo). The format is biochemical. Also noted: purchased Promega, Madison, WI, USA. To be noted: 5 µM and 20 µM; verapamil positive control. Here is the method:
P-gp function depends on ATP hydrolysis energy, and compounds that interact with P-gp can stimulate or inhibit its ATPase activity. P-gp ATPase activity is usually stimulated by its substrates. The Pgp-GloTM assay system detects a compound’s effect on recombinant human P-gp in a cell membrane fraction. P-gp ATPase activity was measured using the luminescent Pgp-Glo^TM assay kit according to manufacturer’s instructions. Briefly, ATP was first incubated with P-gp; then, the P-gp ATPase reaction was stopped, and the remaining un-metabolized ATP was detected as a luciferase-generated luminescent signal. P-gp-dependent decreases in luminescence reflect ATP consumption by P-gp; thus, the greater the decrease in signal, the higher the P-gp activity. […] Na3VO4 is a noncompetitive inhibitor of P-gp ATPase activity. The difference in the luminescent signal, expressed as relative light units (RLU), between Na3VO4-treated samples and untreated samples represents the basal P-gp ATPase activity (ΔRLU basal). The difference in the luminescent signal between Na3VO4-treated samples and samples treated with the tested compounds represents P-gp ATPase activity in the presence of the tested compounds. […] The luminescence of samples treated with 5 μM and 20 μM of Si306, pro-Si306, and pro-Si221 was measured using a luminometer microplate reader (CHAMELEONTMV, Hidex, Turku, Finland).

Data set [8] has as its system P-gp expression. The data set is described as follows: Flow cytometric analysis of P-gp expression in DLD1-TxR cells. Type of data set: cell-based, human. The conditions noted are these: 48-h treatment, Si306, pro-Si306 5 and 10 µM, pro-Si221 1 and 2 µM, TQ 5 and 10 nM. The protocol:
(§2) The P-gp expression level in NCI-H460/R and DLD1-TxR was measured by flow cytometry. […] After 48 h, cells were collected by trypsinization, washed in PBS, and then directly immuno stained by FITC-conjugated anti-P-gp antibody according to the manufacturer’s protocol.
In general terms: A flow cytometer gives signals particle by particle.

Data set [9] deals with P-gp expression. In words: Flow cytometric analysis of P-gp expression in NCI-H460/R cells. Type of data set: cell-based, human. The conditions noted are these: 48-h treatment, Si306, pro-Si306 5 and 10 µM, pro-Si221 1 and 2 µM, TQ 5 and 10 nM. The protocol:
as §2

Data set [10] concerns the target T1, P-gp. In words: Rho 123 accumulation assay (P-gp activity) in DLD1-TxR cells. The conditions noted are these: for P-gp inhibition by Rho 123 intracellular accumulation / kinetics of P-gp inhibition (Rho123 accumulation) / IC50: DLD1-TxR; for P-gp inhibition by Rho 123 intracellular accumulation: 10 µM, 30-min treatment, compared with Dex-VER; for kinetics of P-gp inhibition (Rho123 accumulation): 24-, 48-, 96-, 168-h treatments, 10 µM pro-Si306, 1 and 2 µM pro-Si221, 5 and 10 nM TQ; for IC50: IC50 for P-gp inhibition, Rho123 accumulation, 30 min.
Method: as §3

Values joined by “and” are separate entries in the source; they are usually repeats but may differ in a detail not shown here. Equal entries are not always repeated. “Also recorded” adds a separate entry of the source.

The record followed here is publication PMC8582576, “New Therapeutic Strategy for Overcoming Multidrug Resistance in Cancer Cells with Pyrazolo[3,4-d]pyrimidine Tyrosine Kinase Inhibitors” (Cancers, 2021).

As usually defined, the IC50 is the midpoint of a concentration-inhibition curve. With `COc1cccc2c1C(=O)c1c(O)c3c(c(O)c1C2=O)C[C@@](O)(C(=O)CO)C[C@@H]3O[C@H]1C[C@H](N)[C@H](O)[C@H](C)O1` [DOX, doxorubicin, reference compound], in the data set on NCI-H460/R [1] (Homo sapiens, MTT, 72 h, read-out: IC50 of DOX alone), the IC50 came to 0.905 ± 0.0444 µM.

Regarding `Cc1nc(Nc2ncc(C(=O)Nc3c(C)cccc3Cl)s2)cc(N2CCN(CCO)CC2)n1` [Dasatinib, reference compound], the IC50 in data set [2] was less than 10 µM; in the data set with DLD1 it was 3.24 ± 0.411 µM; with NCI-H460, 3.93 ± 0.295 µM; with DLD1-TxR [3], 2.9 ± 0.223 µM; in the data set with NCI-H460/R [4], 6.88 ± 0.605 µM. The “P-gp inhibition by Rho 123 intracellular accumulation” value at P-gp [5] was “did not show potential to inhibit P-gp”.

`CC(=O)O[C@H]1C(=O)[C@@]2(C)[C@H]([C@H](OC(=O)c3ccccc3)[C@]3(O)C[C@H](OC(=O)[C@H](O)[C@@H](NC(=O)c4ccccc4)c4ccccc4)C(C)=C1C3(C)C)[C@]1(OC(C)=O)CO[C@@H]1C[C@@H]2O` [PTX, paclitaxel, reference compound]: the IC50 in the data set on DLD1-TxR [6] (Homo sapiens, MTT, 72 h, read-out: IC50 of PTX alone) turned out to be 1.05 ± 0.115 µM.

Broadly, the inhibition is the drop in the measured response relative to a control, in per cent. A high value points to a response far below the control. Turning to `CN1CCN(CCOC(=O)N(Cc2ccccc2Cl)c2ncnc3c2cnn3CC(Cl)c2ccc(Br)cc2)CC1` (centres unmarked) [Pro-Si221], the “effect on ATPase activity of P-gp” value on P-gp [7] was “potential to inhibit the ATPase activity of P-gp; also recorded: highest inhibitory effect on ATPase activity”. Further, the “effect on P-gp expression (protein level)” value (“effect on P-gp expression” for short) in the data set on P-gp expression [8] is “tendency to decrease the P-gp expression”; with P-gp expression [9] it was “less pronounced effect on the increase in P-gp expression”. Further, the IC50 in data set [2] is less than 10 µM; in the data set with DLD1, 9.8 ± 1.15 µM; with NCI-H460, 4.27 ± 0.509 µM; in the data set on DLD1-TxR [3], 5.7 ± 0.543 µM; in the data set on NCI-H460/R [4] it was 5.14 ± 0.573 µM; on P-gp [5], 612 ± 72 nM. This compound also yielded an IC50 at P-gp [10] of 669 ± 61 nM. Also, the “Relative Reversal of PTX resistance” value in the data set on DLD1-TxR [6] (SFK inhibitor 0.2 µM) was found to be 2.0; in the data set on DLD1-TxR [6] (SFK inhibitor 0.5 µM), 3.2. Also, the “Relative Reversal of DOX resistance” value with NCI-H460/R [1] (SFK inhibitor 0.2 µM) worked out at 1.8; with NCI-H460/R [1] (SFK inhibitor 0.5 µM), 7.1. The “P-gp inhibition by Rho 123 intracellular accumulation” value at P-gp [5] and at P-gp [10] was “considerably more potent than that observed with Dex-VER” in each case. Also, the “kinetics of P-gp inhibition (Rho123 accumulation)” value was “continued to decrease until 48 h when it reached stability and was sustained even after 168 h” on P-gp [5]; “decline until 96 h when it reached stable P-gp inhibition” on P-gp [10]. Further, the inhibition at 30 min, 1 µM at P-gp [5] (human, NCI-H460/R cells, probe Rho 123 (5 µM)) was 100%; against P-gp [10] (human, DLD1-TxR cells, probe Rho 123 (5 µM)), 100%.

With `Clc1ccccc1CNc1ncnc2c1cnn2CC(Cl)c1ccc(Br)cc1` (centres unmarked) [Si221], the IC50 in the data set with DLD1 is 34.1 ± 2.32 µM; with NCI-H460, 14.6 ± 1.48 µM; with DLD1-TxR [3], 11.6 ± 1.29 µM; in the data set on NCI-H460/R [4], 18.1 ± 2.08 µM. Further, the “P-gp inhibition by Rho 123 intracellular accumulation” value at P-gp [5] and at P-gp [10] was “did not modulate the activity of P-gp” in each case.

`ClC(Cn1ncc2c(Nc3cccc(Br)c3)nc(SCCN3CCOCC3)nc21)c1ccccc1` (centres unmarked) [Si306]: on P-gp [7], the “effect on ATPase activity of P-gp” value is recorded as “potential to inhibit the ATPase activity of P-gp”. The results for the “effect on P-gp expression” value in the data set with P-gp expression [8] and in the data set on P-gp expression [9] were “tendency to decrease the P-gp expression” and “significantly increased P-gp expression”, respectively. For the same compound, the concentration for half-maximal inhibition (IC50) in [2] is less than 10 µM; in the data set on DLD1, 3.93 ± 0.679 µM; with NCI-H460 it was 6.24 ± 0.685 µM; with DLD1-TxR [3], 2.56 ± 0.183 µM; with NCI-H460/R [4], 1.89 ± 0.184 µM; at P-gp [5] it was 13300 nM. Further, at P-gp [10], the IC50 was 6400 nM and 6440 nM. Further, in the data set with NCI-H460/R [4] (NCI-H460/R vs NCI-H460, MTT), the “fold lower IC50 in MDR NCI-H460/R than in sensitive NCI-H460 cells” value was “more than 2 fold”. The “P-gp inhibition by Rho 123 intracellular accumulation” value on P-gp [5] and on P-gp [10] was “considerably more potent than that observed with Dex-VER” in each case.

Turning to `COc1cc2c(cc1OC)CN(CCc1ccc(NC(=O)c3cc(OC)c(OC)cc3NC(=O)c3cnc4ccccc4c3)cc1)CC2` [TQ, tariquidar, reference compound], the “effect on P-gp expression” value in the data set on P-gp expression [8] and in the data set on P-gp expression [9] was “increased the expression of P-gp” throughout. Moreover, the IC50 was found to be 1.07 ± 0.174 nM against P-gp [5] (TQ values in nM (footnote a)) and 0.925 ± 0.155 nM against P-gp [10] (TQ values in nM (footnote a)). The “kinetics of P-gp inhibition (Rho123 accumulation)” value on P-gp [5] and at P-gp [10] was “reached stable P-gp inhibition after 48 h that was sustained until 168 h” throughout.
